Data reported in patent US20230151432A1, “KIF18A INHIBITORS FOR TREATMENT OF NEOPLASTIC DISEASES” (AMGEN INC., priority 2020, published 2023).

Tests used:
[1] = test system: human breast cancer cell lines; assay: 4-day or 6-day cancer cell line growth assay screens (CellTiter-Glo, NCA); format: cell-based
Protocol: (§1) An analysis was carried out to identify cancer cell lines sensitivity profile to the KIF18A inhibitor Compound C9. In this analysis, a panel of different human breast and ovarian cancer cell lines (Table 2 of FIG. 4A and Table 3 of FIG. 4B), were used in either a 4-day or 6-day cancer cell line growth assay screen.
(§2) In the 4-day growth assay screen, cancer cell lines were treated in 96-well tissue culture plates at pre-optimized seeding density. Growth media conditions were determined by ChemPartners (Shanghai, China). After 24 hours, cells were treated with KIF18A inhibitor (Compound C9; final 10-point concentration range 2.0 μM to 0.0001 μM, 3-fold dilution) in a 4-day cell growth assay based on quantitation of ATP as an indicator of viable cells using CellTiter-GLO 2.0 readout (CTG, Promega). CTG assay was performed in duplicate for each cell line. Detection was performed using luminescence plate reader and expressed as relative luminescence units (RLU) based on POC (percentage of DMSO control). Raw data was provided to Amgen for curve-fitting analysis with 4-parameter equation (variable slope) using GraphPad Prism software (V7.0.4). […]
(§3) An expanded screen was performed using 6-day growth assay, cancer cell lines were treated in black 384-well tissue culture plates at 500-1500 cells per well. Growth media conditions were determined by Horizon Discovery (Cambridge, United Kingdom). After 24 hours, cells were treated with KIF18A inhibitor (Compound C9; final 11-point concentration range 2.0 μM to 0.0000339 μM, 3-fold dilution) in a 6-day cell growth assay based on quantitation of ATP as an indicator of viable cells using CellTiter-GLO 2.0 readout (Promega). Luminescence was detected using Envision plate reader (Perkin Elmer) and expressed as relative luminescence units (RLU) based on POC (percentage of control). […]
(§4) In Tables 2 and 3, “?” means that there were differences in sensitivity calls between the first screen and the second screen, and “ND” means not determined. […]

[2] = test system: human ovarian cancer cell lines; assay: as above; format: cell-based; conditions: nine TP53 wild-type ovarian cancer cell lines
Protocol: as §1, §2, §3, §4

[3] = Tolerability (body weight, blood counts) in tumor-bearing nude mice; format: in vivo, mouse; conditions: 18 days
Protocol: Female athymic nude mice were injected with 5×10^6 cells in 0.1 mL subcutaneously in the right flank. After tumors were established (average tumor volume of 150 mm^3), animals were randomized into 4 treatment groups (vehicle alone, KIF18A inhibitor at 10, 30, or 100 mg/kg) with 10 animals per group and treated orally once per day (PO, QD) starting on day 25 post-tumor implantation. Tumor measurement was calculated from the length, width and height of tumors measured with a PRO-MAX electronic digital caliper (Japan Micrometer Mfg. Co. LTD). The tumor volume was calculated as [L×W×H] and expressed in mm^3. Tumor volume and animal body weight measurements were determined twice per week (study start day 25, study end day 45). A single mouse was removed from the study (KIF18A inhibitor 30 mg/kg group) due to abdominal distention, a finding likely unrelated to compound.
Data was plotted using GraphPad Prism software (V7.0.4), tumor volume and body weight data are expressed as means plus or minus standard error of the mean and plotted as a function of time. Statistical significance of observed differences between growth curves were calculated using SLACR package (v.1.0.3). Statistical significance for tumor regressions were performed by paired Student's t-Test on the initial and final tumor volumes with significant tumor regression p-values (***p≤0.0001) for all three KIF18A inhibitor treatment groups. KIF18A inhibitor dose 10 mg/kg (81% regression, 5 of 10 tumor-free), 30 mg/kg (98% regression, 8 of 9 tumor-free), and 100 mg/kg (97% regression, 7 of 10 tumor-free).
Female athymic nude mice were injected with 5×10^6 OVCAR-8 cells in 0.1 mL subcutaneously in the right flank. […] Tumor volume and animal body weight measurements were determined twice per week (study start day 25, study end day 47). Tumor measurements, formulas, and regression analysis as described above for FIGS. 5A-5B. Data was plotted using GraphPad Prism software (V7.0.4), tumor volume and body weight data are expressed as means plus or minus standard error of the mean and plotted as a function of time. Statistical significance of observed differences between growth curves were calculated using SLACR package (v.1.0.3).
Data was graphed using GraphPad Prism 7.05.
Tumor volume and body weight assessment performed as described above. After the final dose on day 36, plasma pharmacokinetic analysis was performed as described above. All data analysis was performed as described above.
Animals were dosed IP daily with vehicle alone, C9 (50 or 100 mg/kg), or C12 (25 or 50 mg/kg). […] Tumor volume and body weight assessment performed as described above. After the final dose on day 46, plasma pharmacokinetic analysis was performed as described above except blood was drawn by retro-orbital bleed method.

[4] = OVCAR-3 study, C9 100 mg/kg, C12 25 mg/kg IP daily

CC(C)(C)NS(=O)(=O)c1cccc(NC(=O)c2ccc(S(=O)(=O)NC(C)(C)C)cc2N2CCC3(CC2)CC3)c1 [Compound C9, 4-(N-(tert-butyl)sulfamoyl)-N-(3-(N-(tert-butyl)sulfamoyl)phenyl)-2-(6-azaspiro[2.5]octan-6-yl)benzamide]
sensitivity to KIF18A inhibitor ([1]; luminal A or luminal B breast cancer cell lines): None of the luminal A or luminal B breast cancer cell lines were sensitive | sensitivity to KIF18A inhibitor ([1]; nine TP53 wild-type breast cancer cell lines incl. CAL-51, DU4475): None of the nine TP53 wild-type breast cancer cell lines were sensitive | sensitivity to KIF18A inhibitor [2]: None of the nine TP53 wild-type ovarian cancer cell lines were sensitive | tolerability (body weight) ([3]; CAL-51 study, C9 100 mg/kg, C12 25 mg/kg IP daily): well-tolerated | body weight loss or changes in blood counts [3, 4]: no evidence of body weight loss or changes in blood counts | tolerability [3, 4]: well-tolerated | tolerability (body weight) ([3]; OVCAR-8 study, C9 50 or 100 mg/kg, C12 25 or 50 mg/kg IP daily): well-tolerated
